Tests used:
JEG-3 cells [1] = experiment: [3H]-thymidine incorporation in JEG-3 cells (JEG-3 protocol); format: cell-based; details: FIG. 4
Protocol: In JEG-3 cells (choriocarcinoma cell line) leptin is able to stimulate proliferation up to 3 fold (Biol. Reprod. (2007) 76: 203-10). […] The radioactivity incorporated by the cells is an index of their proliferative activity and is measured in counts per minute (CPM) with a liquid scintillation beta counter.
This finding can be applied to test whether a compound is able to either reproduce the effect of leptin on cell proliferation (leptin receptor agonist mimetic) (i.e., a given compound will cause an increase in incorporated [^3H]-Thymidine by the cells) or to inhibit the effect of leptin (antagonistic effect) by preventing the leptin-mediated increase in [^3H]-thymidine incorporation.

JEG-3 cells [2] = details: Biol. Reprod. (2007) 76: 203-10; cited from earlier work

EC50 (JEG-3 cells [1]; JEG-3 cells (choriocarcinoma cell line), read-out: EC50, increase in [3H]-thymidine incorporation): 2.1 nM
Substance: leptin: hormone synthesized in fat cells that is believed to act in the hypothalamus to reduce food intake and body weight
concentration of maximal effect on [3H]-thymidine incorporation (JEG-3 cells [1]; JEG-3 cells): 100 nM
stimulation of proliferation (JEG-3 cells [2]): up to 3 fold

Reference: patent US20110275638A1, “PIPERAZINE DERIVATIVES AND THEIR USE AS LEPTIN RECEPTOR MODULATORS” (priority 2008, published 2011)
